Some results are limits rather than exact numbers.

The nature of series [1]: solubility in water. Format: physicochemical.
Series [2] can be described thus: PK test of compound F2 and its solid dispersion, oral, fasted male Wistar rats. Format: in vivo. To be noted: Wistar (Crlj:WI), rat, compound F2 in plasma, 10 mg/kg (as compound F2) p.o., n=3. Here is the method: Fasted male rats (8 weeks old, Wistar (Crlj:WI), Charles River Laboratories Japan, Inc.) were orally administered a crystalline form of the compound F2 suspended in a 1% methylcellulose aqueous solution or a solid dispersion comprising the compound F2 suspended in water for injection. The dosage of the compound F2 in each group was 10 mg/kg (n=3 in each group). Blood samples were collected in a time-dependent manner at 0.5, 1, 2, 4, 6, 8, and 24 hours after oral administration. The concentration of the compound F2 in the obtained plasma was measured by LC-MS/MS (MS/MS: API4000, SCIEX, LC: LC-20AD series, Shimadzu Corporation). Tmax, Cmax, and AUClast were calculated from the plasma concentration transition (Table 5).

Series [3] can be described thus: PK test, solid dispersions E and B of compound F48, single oral dose, fasted male Wistar rats. Format: in vivo. To be noted: Wistar (Crlj:WI), rat, compound F48 in plasma, 10 mg/kg (as compound F48) p.o. once, n=3. Here is the method:
Solid dispersions E and B were prepared using a rotary evaporator according to the following method. The compound F48 was dissolved in THF to result in 2.5 mg/mL. By the same procedure as above, each polymer was prepared to result in 25 mg/mL. Next, the compound F48 solution was added to the polymer solution with stirring such that the weight ratio between the compound F48 and the carrier was 1:25. The resulting mixture was transferred to a recovery flask, and the organic solvent was then removed using a rotary evaporator (Yamato Scientific Co., Ltd., distillation apparatus). The recovery flask was transferred to a desiccator and dried under reduced pressure using a vacuum pump for approximately 16 hours, thereby obtaining solid dispersions E and B. […]
Blood samples were collected in a time-dependent manner before oral administration and at 0.5, 1, 3, 5, 8, and 24 hours after oral administration. The concentration of the compound F48 in the obtained plasma was measured by HPLC (Hitachi High-Technologies Corporation). The time to reach the maximum plasma concentration (Tmax), the maximum plasma concentration (Cmax), and the area under the plasma concentration-time curve (AUClast) were calculated from the plasma concentration transition (Table 2).

In the case of `O=C1CC(=O)N(c2ccc(NC(=O)c3ccccc3C(F)(F)F)cc2)c2ccc3ccccc3c2N1` [Compound F2, 5-[4-[2-(trifluoromethyl)benzoyl]aminophenyl]-1H-naphtho [1,2-b][1,4]diazepine-2,4 (3H,5H)-dione], the solubility in water entry in series [1] was “poorly soluble in water”. Further, in series [2], the AUC(0-t) is 5710 ± 520 ng·h/mL, the Cmax amounted to 386 ± 56 ng/mL and the Tmax is 4 h.
Take `O=C1CC(=O)N(c2ccc(NC(=O)c3ccccc3I)cc2)c2ccc3ccccc3c2N1` [Compound F48, 5-[4-(2-iodobenzoylamino)phenyl]-1H-naphtho [1,2-b][1,4]diazepine-2,4 (3H,5H)-dione]: in series [1], the solubility in water result was “poorly soluble in water”.
On to `CCc1ccccc1C(=O)Nc1ccc(N2C(=O)CC(=O)Nc3c2ccc2ccccc32)cc1` [Compound F57, 5-[4-[(2-ethylbenzoyl)amino]phenyl]-1H-naphtho [1,2-b][1,4]diazepine-2,4 (3H,5H)-dione], for which, in series [1], the solubility in water result was “poorly soluble in water”.
As to `O=C1CC(=O)N(c2ccc(NC(=O)c3ccccc3I)cc2)c2ccc3ccccc3c2N1` [Control, 5-[4-(2-iodobenzoylamino)phenyl]-1H-naphtho [1,2-b][1,4]diazepine-2,4 (3H,5H)-dione], the Cmax in series [3] is below 25 ng/mL.

What is called AUC(0-t) is the area under the concentration-time curve up to a stated or last time point. Low values mean low exposure, high ones high exposure. A word on the Cmax: it is the highest concentration seen after dosing. A word on the Tmax: it is the time from dosing to the highest level.
